Data taken from US6387956B1, “Methods of treating obsessive-compulsive spectrum disorders” (University of Cincinnati, priority 1999, dated 2002).
Counter-ions that a name gives are not always drawn.

Columns and labels:
[1] = system: SRI-treatment refractory OCD; assay: Six week tramadol hydrochloride treatment of SRI-refractory OCD patients, assessed with Y-BOCS, HAM-D and CGI; assay type: in vivo
Method: (§1) Exclusion criteria for the study included a life-time DSM-IV diagnosis of mania, psychotic disorder, alcohol or substance abuse or dependence, prior history of hypersensitivity to tramadol or any other opioid, a history of seizures, including childhood febrile seizures, and any clinically relevant abnormal laboratory results or clinically unstable medical conditions. […] The patients were not concurrently receiving behavioral therapy.
(§2) Patients were evaluated using the Yale-Brown Obsessive Compulsive Scale (Y-BOCS), the Hamilton Rating Scale for Depression (HAM-D) and the Clinical Global Impression Scale (CGI). Subsequent to screening, the individuals received a six week treatment with tramadol hydrochloride. The tramadol hydrochloride was initially administered at 50 mg four times a day for the first week. If there was less than a 20% drop in baseline Y-BOCS scores by the end of week one, the tramadol hydrochloride dose was advanced slowly over 1 to 2 weeks to a maximum of 400 mg per day in 3 to 5 divided doses. Weekly measurements with the Y-BOCS, HAM-D and CGI were used to assess responses. Y-BOCS and HAM-D values at the start and end of the trial were compared using the Wilcoxon signed-ranks test.
The mean ± standard deviation dose of tramadol hydrochloride for the six patients completing at least two weeks was 254±119 mg/day (divided into from 3 to 5 doses). The mean ± standard deviation of baseline and endpoint Y-BOCS, HAM-D and severity of illness CGI and global improvement CGI are set forth below in Table 1. […] The scores for the patient who dropped out in week 6 were carried forward from week 5.

[2] = Weight and appetite during the six week tramadol hydrochloride study; assay type: in vivo, patients
Method: as §1, §2
Weekly mean ± standard deviation of weight and tramadol doses for the patients are set forth below in Table 2, while weights and tramadol hydrochloride doses for individual patients are set forth in Table 3. For data analysis purposes, when an individual's weight was not available, the weight from the previous week was carried forward.

OCD = assay: Example 2: case of a person with OCD, Y-BOCS; assay type: in vivo, patient
Method: The tramadol hydrochloride therapy was then supplemented with 20 mg per day of fluoxetine, and three weeks later the fluoxetine was increased to 40 mg daily.

[3] = Example 3: weight of a OCD patient during 11 months of tramadol hydrochloride; assay type: in vivo
Method: A OCD patient was treated with tramadol hydrochloride for a total of 11 months, during the last month of the study the patient was titrated off the tramadol hydrochloride. The only additional prescribed medication was alendronic acid ((4-amino-1-hydroxybutylidene)bisphosphonic acid) started at week 6 for osteoporosis unrelated to tramadol use. (The patient has a family history of osteoporosis and previous steroid use.) The patient's weight and tramadol hydrochloride doses are set forth in Table 4 below.

Tourette's syndrome = assay: Example 4: case of a patient with major depressant disorder and Tourette's syndrome, motor tics; assay type: in vivo; settings: 50 mg twice a day added to bupropion
Method: A patient with a history of recurrent major depressant disorder was treated with extended release bupropion (1-(3-chlorophenyl)-2-[(1,1-dimethylethyl)amino]-1-[…]), at a total dose of 300 mg per day (200 mg in the morning and 100 mg in the evening). […] The patient also reported a history of purging. […] The patient was diagnosed as having major depressant disorder and Tourette's syndrome.
The bupropion was supplemented with 50 mg twice a day of tramadol. […] The patient estimated that the number of tics was reduced by about two-thirds after starting the tramadol. The patient's bupropion dose was increased to 400 mg per day (200 mg twice a day), while the tramadol dose was maintained at 50 mg twice a day. The patient was informed the tramadol dose could be increased to 50 mg four times a day if the number of tics increased.

[4] = during tramadol hydrochloride treatment

With `COc1cccc(C2(O)CCCCC2CN(C)C)c1` (mixture of isomers) [tramadol hydrochloride, (±) cis-2-[(dimethylamino)methyl]-1(3-methoxyphenyl)cyclohexanolhydrochloride] the “withdrawal Y-BOCS score, average, after withdrawal” value ([1]; 3 patients stopping tramadol hydrochloride without adding another agent, followed for two weeks) was 19.7, the “withdrawal Y-BOCS score, average, at stopping” value ([1]; 3 patients stopping tramadol hydrochloride without adding another agent, start of withdrawal) was 14.3 and the “adverse event leading to discontinuation” value ([1]; another patient, during week 6) was “panic attack”. The “Y-BOCS scores during treatment” value [1, 4] was “decreased”, the “change in HAM-D scores” value [1, 4] was “no significant change” and the “Global Improvement CGI, mean ± SD, ENDPOINT” value ([1]; endpoint of six week treatment, six patients, baseline 5.2 ± 0.8, 2=much improved, 3=minimally improved, 4=no change) was 2.3 ± 1.0. The “Severity of Illness CGI, mean ± SD, ENDPOINT” value ([1]; endpoint of six week treatment, six patients, baseline 5.3 ± 1.5, 4=moderately ill, 5=markedly ill, 6=severely ill) was 4.5 ± 1.2, the “HAM-D, mean ± SD, ENDPOINT” value ([1]; endpoint of six week treatment, six patients, baseline 27.7 ± 15.9) was 28.8 ± 9.8 and the “urges or pressures to perform the compulsions, patient reported” value ([1]; obsessions persisted in a muted form) was “diminished”. For the same compound, the “adverse event leading to discontinuation” value ([1]; one patient, during week 1) was “nausea and exacerbation of trichotillomania”, the “decrease in Y-BOCS scores within the first week” value ([1]; three of the seven patients, rapid onset of response) was “greater than 6 point” and the “compulsive urges after the first dose” value ([1]; two individuals, first 50 mg dose) was “alleviation”. For the same compound, the “Weight, mean ± SD” value ([2]; Week 1, seven patients, baseline 173.36 ± 29.58) was 172.46 ± 29.9 lbs, the “Weight, mean ± SD” value ([2]; Week 2, seven patients) was 170.39 ± 29.1 lbs and the “Weight, mean ± SD” value ([2]; Week 3, seven patients) was 170.5 ± 29.64 lbs. The “Weight, mean ± SD” value ([2]; Week 4, seven patients) was 169.46 ± 28.62 lbs, the “Weight, mean ± SD” value ([2]; Week 5, seven patients) was 169.1 ± 28 lbs and the “Weight, mean ± SD” value ([2]; Week 6, seven patients) was 167.5 ± 26.54 lbs. For the same compound, the “weight lost on average” value ([2]; seven patients, six week treatment) was 5.86 pounds, the “appetite, patient reported” value ([2]; six week treatment) was “decreased appetite” and the “time to reported decrease in obsessions and compulsions” value (OCD; 50 mg twice a day) was at most 24 h. It also gave a Y-BOCS score (OCD; after one week of treatment, score prior to treatment 26) of 19, a Weight ([3]; Month 3, 350 mg/day for 2 weeks, followed by 400 mg/day) of 127.0 lbs and a Weight ([3]; Month 4, 400 mg/day) of 124.5 lbs. For the same compound, the Weight ([3]; Month 5, 400 mg/day) was 124.75 lbs, the Weight ([3]; Month 6, 400 mg/day, alendronic acid started) was 124.5 lbs and the Weight ([3]; Month 7, 400 mg/day) was 127.0 lbs. For the same compound, the Weight ([3]; Month 8, 400 mg/day) was 125.0 lbs, the Weight ([3]; Month 9, 300 mg/day) was 128.0 lbs and the Weight ([3]; Month 10, 150 mg/day) was 127.5 lbs. It also gave a Weight ([3]; Month 11, 100 mg/day for 2 weeks, 50 mg/day for 1 week, then discontinued) of 131.5 lbs, a Weight ([3]; Week 2, 300 mg/day, baseline 129.5) of 128.25 lbs and a Weight ([3]; Week 3, 400 mg/day) of 127.0 lbs. The Weight ([3]; Week 4, 400 mg/day) was 127.25 lbs, the Weight ([3]; Week 6, 300 mg/day) was 126.0 lbs and the Weight ([3]; Week 7, 300 mg/day) was 126.3 lbs. The Weight ([3]; Week 8, 300 mg/day) was 126.0 lbs, the “weight after treatment was discontinued” value ([3]; after the tramadol hydrochloride treatment was discontinued) was “regained” and the “effect on weight during treatment” value ([3]; during the tramadol hydrochloride treatment) was “lost weight”.

With `COc1cccc([C@]2(O)CCCC[C@H]2CN(C)C)c1` (racemic) [tramadol, (±)cis-2-[(dimethylamino)methyl]-1(3-methoxyphenyl) cyclohexanol] the side effects (Tourette's syndrome) was “without any side effects”.
